One assay relates to Candida albicans. As to the kind of experiment: Protection of mice against infection with Candida albicans (daily i.p. treatment, intravenous challenge). It counts as in vivo. The text has this: The biological activity of thymosin a1 can be determined by utilizing in vivo assays known in the art. Thus, for example, inbred strains of mice are known to vary in their susceptibility to infection with C. albicans. Thus, mice of such strains as C3 H/HeJ or CBA/CaJ are highly susceptible to infection, whereas mice of such strains as C57 BI/10SNJ or C57BI/KsJ were highly resistant to challenge. Since resistance to infection with C. albicans is associated with cell-mediated processes, and therefore with T-lymphocytes, thymic hormones should have an effect on the host response.
Thymosin fraction 5, thymosin a1 or α11 was injected daily i.p. in graded doses into three different groups of mice, beginning two days before intravenous challenge with 4x10^4 cells of Candida albicans.
Mice were treated daily with the indicated doses of thymosin fraction 5, thymosin a1 or thymosin α11 and challenged with 4x 10^4 cells of C. a/bicans two days after the start of treatment
^* Three mice from each set were sacrificed on days 7,14 and 21 after infection and the values represent
the average number of organisms in the left kidneys of the nine mice in each set.

Assay [1] relates to T cell differentiation and function. Put plainly: In vivo assay systems designed to measure T cell differentiation and function. The text has this:
The present invention relates to the isolation and first complete structural determination of a new polypeptide (thymosin α11 ) isolated from thymosin fraction 5, to pharmaceutically acceptable acid and base addition salts thereof and to pharmaceutical compositions containing this compound or its salts.

This is an account of results in EP0131252B1, “Thymosin alpha 11” (F. HOFFMANN-LA ROCHE AG, priority 1983, dated 1989).

For the substance “AcSer-Asp-Ala-Ala-Val-Asp-Thr-Ser-Ser-Glu-ile-Thr-Thr-Lys-Asp-Leu-Lys-Glu-Lys-Lys-Glu-Val-Val-Glu-Glu-Ala-Glu-Asn-Gly-Arg-Glu-Ala-Pro-Ala-AsnOH [thymosin α11]”, the “potency relative to fraction 5 in ability to induce resistance to infection with C. albicans” value with Candida albicans (compared on optimum daily doses) is given as “about 30 times”. Further, the “daily doses at which most active” value in the assay with Candida albicans (i.p., daily, resistance to infection with C. albicans) is given as 160-320 ng per mouse. Also, the “protection in comparison with control mice” value in the assay with Candida albicans (injected daily i.p. in graded doses, beginning two days before intravenous challenge with 4x10^4 cells of Candida albicans) is recorded as “provided protection”. In addition, the “potency of thymosin a1 and thymosin α11 relative to each other” value in the assay on Candida albicans (resistance to infection with C. albicans) is on record as “approximately equal in potency”. In addition, in assay [1], the “biological activity compared with thymosin a1” value was “same qualitative and quantitative biological activity as thymosin a1”.
